Test results from ChEMBL document CHEMBL2375290, “Nonclassical antifolates, part 3: synthesis, biological evaluation and molecular modeling study of some new 2-heteroarylthio-quinazolin-4-ones” (Eur J Med Chem, 2013).
pIC50: −log10 of the molar value.

Tested on: Staphylococcus aureus
Assay: Antimicrobial activity against Staphylococcus aureus at 200 ug after 24 hrs by agar disc diffusion method
Type: functional
Details: read-out: DIZ

SMILES | zone of inhibition at 200 µg/disc
COc1cc2nc(Sc3cnc(N)s3)n(Cc3ccccc3)c(=O)c2cc1OC | 17 mm

Tested on: NCI-H23
Assay: Cytotoxicity against human NCI-H23 cells at 10 uM after 48 hrs by coulter counter analysis
Type: functional
Details: NCI-H23, 48 h, read-out: GI

SMILES | inhibition of growth at 10 µM
COc1cc2nc(Sc3cnc(N)s3)n(Cc3ccccc3)c(=O)c2cc1OC | < 10%

Tested on: MOLT-4
Assay: Cytotoxicity against human MOLT4 cells at 10 uM after 48 hrs by coulter counter analysis
Type: functional
Details: MOLT-4, 48 h, read-out: GI

SMILES | inhibition of growth at 10 µM
COc1cc2nc(Sc3cnc(N)s3)n(Cc3ccccc3)c(=O)c2cc1OC | < 10%

Tested on: SN12C
Assay: Cytotoxicity against human SN12C cells at 10 uM after 48 hrs by coulter counter analysis
Type: functional
Details: read-out: GI

SMILES | inhibition of growth at 10 µM
COc1cc2nc(Sc3cnc(N)s3)n(Cc3ccccc3)c(=O)c2cc1OC | < 10%

Tested on: Escherichia coli
Assay: Antimicrobial activity against Escherichia coli at 200 ug after 24 hrs by agar disc diffusion method
Type: functional
Details: read-out: DIZ

SMILES | zone of inhibition at 200 µg/disc
COc1cc2nc(Sc3cnc(N)s3)n(Cc3ccccc3)c(=O)c2cc1OC | 16 mm

Tested on: MDA-MB-231
Assay: Cytotoxicity against human MDA-MB-231 cells at 10 uM after 48 hrs by coulter counter analysis
Type: functional
Details: MDA-MB-231, 48 h, read-out: GI

SMILES | inhibition of growth at 10 µM
COc1cc2nc(Sc3cnc(N)s3)n(Cc3ccccc3)c(=O)c2cc1OC | 19.1%

Tested on: Hs-578T
Assay: Cytotoxicity against human Hs578T cells at 10 uM after 48 hrs by coulter counter analysis
Type: functional
Details: read-out: GI

SMILES | inhibition of growth at 10 µM
COc1cc2nc(Sc3cnc(N)s3)n(Cc3ccccc3)c(=O)c2cc1OC | < 10%

Tested on: Malme-3M
Assay: Cytotoxicity against human MALME-3M cells at 10 uM after 48 hrs by coulter counter analysis
Type: functional
Details: read-out: GI

SMILES | inhibition of growth at 10 µM
COc1cc2nc(Sc3cnc(N)s3)n(Cc3ccccc3)c(=O)c2cc1OC | < 10%

Tested on: OVCAR-4
Assay: Cytotoxicity against human OVCAR4 cells at 10 uM after 48 hrs by coulter counter analysis
Type: functional
Details: OVCAR-4, 48 h, read-out: GI

SMILES | inhibition of growth at 10 µM
COc1cc2nc(Sc3cnc(N)s3)n(Cc3ccccc3)c(=O)c2cc1OC | < 10%

Tested on: HL-60(TB)
Assay: Cytotoxicity against human HL-60(TB) cells at 10 uM after 48 hrs by coulter counter analysis
Type: functional
Details: HL-60, 48 h, read-out: GI

SMILES | inhibition of growth at 10 µM
COc1cc2nc(Sc3cnc(N)s3)n(Cc3ccccc3)c(=O)c2cc1OC | < 10%

Tested on: PC-3
Assay: Cytotoxicity against human PC3 cells at 10 uM after 48 hrs by coulter counter analysis
Type: functional
Details: PC-3, 48 h, read-out: GI

SMILES | inhibition of growth at 10 µM
COc1cc2nc(Sc3cnc(N)s3)n(Cc3ccccc3)c(=O)c2cc1OC | 22.4%

Tested on: SNB-75
Assay: Cytotoxicity against human SNB75 cells at 10 uM after 48 hrs by coulter counter analysis
Type: functional
Details: SNB-75, 48 h, read-out: GI

SMILES | inhibition of growth at 10 µM
COc1cc2nc(Sc3cnc(N)s3)n(Cc3ccccc3)c(=O)c2cc1OC | 13.3%

Tested on: CAKI-1
Assay: Cytotoxicity against human Caki1 cells at 10 uM after 48 hrs by coulter counter analysis
Type: functional
Details: CAKI-1, 48 h, read-out: GI

SMILES | inhibition of growth at 10 µM
COc1cc2nc(Sc3cnc(N)s3)n(Cc3ccccc3)c(=O)c2cc1OC | 25.4%

Tested on: UACC-62
Assay: Cytotoxicity against human UACC62 cells at 10 uM after 48 hrs by coulter counter analysis
Type: functional
Details: UACC-62, 48 h, read-out: GI

SMILES | inhibition of growth at 10 µM
COc1cc2nc(Sc3cnc(N)s3)n(Cc3ccccc3)c(=O)c2cc1OC | < 10%

Tested on: SNB-19
Assay: Cytotoxicity against human SNB19 cells at 10 uM after 48 hrs by coulter counter analysis
Type: functional
Details: SNB-19, 48 h, read-out: GI

SMILES | inhibition of growth at 10 µM
COc1cc2nc(Sc3cnc(N)s3)n(Cc3ccccc3)c(=O)c2cc1OC | < 10%

Tested on: A498
Assay: Cytotoxicity against human A498 cells at 10 uM after 48 hrs by coulter counter analysis
Type: functional
Details: A498, 48 h, read-out: GI

SMILES | inhibition of growth at 10 µM
COc1cc2nc(Sc3cnc(N)s3)n(Cc3ccccc3)c(=O)c2cc1OC | < 10%

Tested on: UO-31
Assay: Cytotoxicity against human UO31 cells at 10 uM after 48 hrs by coulter counter analysis
Type: functional
Details: UO-31, 48 h, read-out: GI

SMILES | inhibition of growth at 10 µM
COc1cc2nc(Sc3cnc(N)s3)n(Cc3ccccc3)c(=O)c2cc1OC | 17.4%

Tested on: Bacillus subtilis
Assay: Antimicrobial activity against Bacillus subtilis at 200 ug after 24 hrs by agar disc diffusion method
Type: functional
Details: read-out: DIZ

SMILES | zone of inhibition at 200 µg/disc
COc1cc2nc(Sc3cnc(N)s3)n(Cc3ccccc3)c(=O)c2cc1OC | 18 mm

Tested on: NCI-H522
Assay: Cytotoxicity against human NCI-H522 cells at 10 uM after 48 hrs by coulter counter analysis
Type: functional
Details: NCI-H522, 48 h, read-out: GI

SMILES | inhibition of growth at 10 µM
COc1cc2nc(Sc3cnc(N)s3)n(Cc3ccccc3)c(=O)c2cc1OC | 19.8%

Tested on: Micrococcus luteus
Assay: Antimicrobial activity against Micrococcus luteus at 200 ug after 24 hrs by agar disc diffusion method
Type: functional
Details: read-out: DIZ

SMILES | zone of inhibition at 200 µg/disc
COc1cc2nc(Sc3cnc(N)s3)n(Cc3ccccc3)c(=O)c2cc1OC | 8 mm

Tested on: SK-MEL-5
Assay: Cytotoxicity against human SK-MEL-5 cells at 10 uM after 48 hrs by coulter counter analysis
Type: functional
Details: SK-MEL-5, 48 h, read-out: GI

SMILES | inhibition of growth at 10 µM
COc1cc2nc(Sc3cnc(N)s3)n(Cc3ccccc3)c(=O)c2cc1OC | 12.9%

Tested on: SF-295
Assay: Cytotoxicity against human SF295 cells at 10 uM after 48 hrs by coulter counter analysis
Type: functional
Details: SF-295, 48 h, read-out: GI

SMILES | inhibition of growth at 10 µM
COc1cc2nc(Sc3cnc(N)s3)n(Cc3ccccc3)c(=O)c2cc1OC | < 10%

Tested on: SR
Assay: Cytotoxicity against human SR cells at 10 uM after 48 hrs by coulter counter analysis
Type: functional
Details: read-out: GI

SMILES | inhibition of growth at 10 µM
COc1cc2nc(Sc3cnc(N)s3)n(Cc3ccccc3)c(=O)c2cc1OC | < 10%

Tested on: T47D
Assay: Cytotoxicity against human T47D cells at 10 uM after 48 hrs by coulter counter analysis
Type: functional
Details: read-out: GI

SMILES | inhibition of growth at 10 µM
COc1cc2nc(Sc3cnc(N)s3)n(Cc3ccccc3)c(=O)c2cc1OC | < 10%

Tested on: not listed separately
Assay: Cytotoxicity against human NCI-ADR-RES cells at 10 uM after 48 hrs by coulter counter analysis
Type: functional
Details: read-out: GI

SMILES | inhibition of growth at 10 µM
COc1cc2nc(Sc3cnc(N)s3)n(Cc3ccccc3)c(=O)c2cc1OC | < 10%

Tested on: A549
Assay: Cytotoxicity against human A549/ATCC cells at 10 uM after 48 hrs by coulter counter analysis
Type: functional
Details: A549, 48 h, read-out: GI

SMILES | inhibition of growth at 10 µM
COc1cc2nc(Sc3cnc(N)s3)n(Cc3ccccc3)c(=O)c2cc1OC | < 10%

Tested on: CCRF-CEM
Assay: Cytotoxicity against human CCRF-CEM cells at 10 uM after 48 hrs by coulter counter analysis
Type: functional
Details: read-out: GI

SMILES | inhibition of growth at 10 µM
COc1cc2nc(Sc3cnc(N)s3)n(Cc3ccccc3)c(=O)c2cc1OC | 22.8%

Target: T1, Dihydrofolate reductase (Bos taurus, UniProt P00376)
T1 sequence (P00376 whole entry): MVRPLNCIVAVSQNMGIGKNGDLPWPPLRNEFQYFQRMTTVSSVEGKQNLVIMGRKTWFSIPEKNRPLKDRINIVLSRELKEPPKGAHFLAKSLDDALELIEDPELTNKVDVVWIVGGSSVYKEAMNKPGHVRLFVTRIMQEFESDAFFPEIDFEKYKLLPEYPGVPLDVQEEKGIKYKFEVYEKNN
Assay: Inhibition of bovine DHFR after 2 mins by spectrophotometry
Details: not given

SMILES | pIC50
COc1cc2nc(Sc3cnc(N)s3)n(Cc3ccccc3)c(=O)c2cc1OC | 5.52

Tested on: IGROV-1
Assay: Cytotoxicity against human IGROV1 cells at 10 uM after 48 hrs by coulter counter analysis
Type: functional
Details: IGROV-1, 48 h, read-out: GI

SMILES | inhibition of growth at 10 µM
COc1cc2nc(Sc3cnc(N)s3)n(Cc3ccccc3)c(=O)c2cc1OC | < 10%

Tested on: MCF7
Assay: Cytotoxicity against human MCF7 cells at 10 uM after 48 hrs by coulter counter analysis
Type: functional
Details: MCF7, 48 h, read-out: GI

SMILES | inhibition of growth at 10 µM
COc1cc2nc(Sc3cnc(N)s3)n(Cc3ccccc3)c(=O)c2cc1OC | < 10%

Tested on: Pseudomonas aeruginosa
Assay: Antimicrobial activity against Pseudomonas aeruginosa at 200 ug after 24 hrs by agar disc diffusion method
Type: functional
Details: read-out: DIZ

SMILES | zone of inhibition at 200 µg/disc
COc1cc2nc(Sc3cnc(N)s3)n(Cc3ccccc3)c(=O)c2cc1OC | 8 mm

Tested on: RPMI-8226
Assay: Cytotoxicity against human RPMI8226 cells at 10 uM after 48 hrs by coulter counter analysis
Type: functional
Details: RPMI-8226, 48 h, read-out: GI

SMILES | inhibition of growth at 10 µM
COc1cc2nc(Sc3cnc(N)s3)n(Cc3ccccc3)c(=O)c2cc1OC | 15.9%

Tested on: LOX IMVI
Assay: Cytotoxicity against human LOXIMVI cells at 10 uM after 48 hrs by coulter counter analysis
Type: functional
Details: read-out: GI

SMILES | inhibition of growth at 10 µM
COc1cc2nc(Sc3cnc(N)s3)n(Cc3ccccc3)c(=O)c2cc1OC | 10.8%

Tested on: MDA-MB-435
Assay: Cytotoxicity against human MDA-MB-435 cells at 10 uM after 48 hrs by coulter counter analysis
Type: functional
Details: MDA-MB-435, 48 h, read-out: GI

SMILES | inhibition of growth at 10 µM
COc1cc2nc(Sc3cnc(N)s3)n(Cc3ccccc3)c(=O)c2cc1OC | < 10%

Tested on: NCI-H226
Assay: Cytotoxicity against human NCI-H226 cells at 10 uM after 48 hrs by coulter counter analysis
Type: functional
Details: NCI-H226, 48 h, read-out: GI

SMILES | inhibition of growth at 10 µM
COc1cc2nc(Sc3cnc(N)s3)n(Cc3ccccc3)c(=O)c2cc1OC | 10.4%

Tested on: RXF 393
Assay: Cytotoxicity against human RXF393 cells at 10 uM after 48 hrs by coulter counter analysis
Type: functional
Details: RXF 393, 48 h, read-out: GI

SMILES | inhibition of growth at 10 µM
COc1cc2nc(Sc3cnc(N)s3)n(Cc3ccccc3)c(=O)c2cc1OC | < 10%

Tested on: not listed separately
Assay: Cytotoxicity against human EKVX cells at 10 uM after 48 hrs by coulter counter analysis
Type: functional
Details: read-out: GI

SMILES | inhibition of growth at 10 µM
COc1cc2nc(Sc3cnc(N)s3)n(Cc3ccccc3)c(=O)c2cc1OC | 16.1%
